SMILES strings stand for the structures. Several values for one entry are separate records, joined by “and”; a condition that tells them apart may be missing. Identical values can stand only once. Inconclusive results and toxic doses are left out. Bridge positions count the residues as written; N and C are the ends. Square brackets hold non-standard residues; d marks the D form. Peptide text beside a SMILES is read from it. * marks the point of attachment. Cbz = O=C(OCc1ccccc1)*; Ava = NCCCCC(=O)O

In the test the test system is P388 leukemia ip, CD2F1 mice, survival T/C. The experiment in a line: NCI In Vivo Anticancer Drug Screen. Data for tumor model P388 Leukemia (intraperitoneal) in CD2F1 (CDF1) mice. The following applies: endpoint: median survival time, higher = longer survival. The gist of the method:
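Mice carrying the transplanted tumor received test compound or vehicle. Survival was recorded in each group, and the value is the treated-group measurement divided by that of the vehicle-treated control group.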

The mark [1] stands for this setting: dose: 50.0 mg/kg/injection, schedule: Q01DX009 (ip), vehicle: saline with Tween-80.
The mark [2] stands for this setting: dose: 100.0 mg/kg/injection, schedule: Q01DX009 (ip), vehicle: saline with Tween-80.
The mark [3] stands for this setting: dose: 200.0 mg/kg/injection, schedule: Q01DX009 (ip), vehicle: saline with Tween-80.
The mark [4] stands for this setting: dose: 60.0 mg/kg/injection, schedule: Q01DX005 (ip), vehicle: saline with Tween-80.
[5] abbreviates: dose: 120.0 mg/kg/injection, schedule: Q01DX005 (ip), vehicle: saline with Tween-80.
Setting [6] is: dose: 240.0 mg/kg/injection, schedule: Q01DX005 (ip), vehicle: saline with Tween-80.
Setting [7] is: dose: 50.0 mg/kg/injection, schedule: Q01DX009 (ip), vehicle: suspension in saline.
Where [8] appears, read: dose: 100.0 mg/kg/injection, schedule: Q01DX009 (ip), vehicle: suspension in saline.

Regarding `NC(=O)c1[nH]nc(C2OC(CO)C(O)C2O)c1O` (stereo unspecified), the T/C runs as follows: (dose: 0.31 mg/kg/injection, schedule: Q01DX009 (ip), vehicle: saline) 109 % of control; (dose: 0.62 mg/kg/injection, schedule: Q01DX009 (ip), vehicle: saline) 122 % of control; (dose: 0.67 mg/kg/injection, schedule: Q01DX009 (ip), vehicle: saline) 124 % of control; (dose: 1.0 mg/kg/injection, schedule: Q04DX003 (ip), vehicle: saline) 108 % of control; (dose: 2.0 mg/kg/injection, schedule: Q04DX003 (ip), vehicle: saline) 113 % of control; (dose: 3.0 mg/kg/injection, schedule: Q01DX009 (ip), vehicle: saline) 107 % of control. For the same compound, the T/C (dose: 3.0 mg/kg/injection, schedule: Q04DX003 (ip), vehicle: saline) was 113 % of control; the T/C (dose: 4.0 mg/kg/injection, schedule: Q04DX003 (ip), vehicle: saline) was 120 % of control; the T/C (dose: 4.4 mg/kg/injection, schedule: Q04DX003 (ip), vehicle: saline) is 115 % of control; the T/C (dose: 6.7 mg/kg/injection, schedule: Q04DX003 (ip), vehicle: saline) was 115 % of control; the T/C (dose: 8.0 mg/kg/injection, schedule: Q04DX003 (ip), vehicle: saline) is 111 % of control; the T/C (dose: 9.0 mg/kg/injection, schedule: Q04DX003 (ip), vehicle: saline) was 123 % of control. Further, the T/C reads like this: (dose: 10.0 mg/kg/injection, schedule: Q04DX003 (ip), vehicle: saline sonified) 116 % of control; (dose: 10.0 mg/kg/injection, schedule: Q04DX003 (ip), vehicle: saline) 106 % of control; (dose: 16.0 mg/kg/injection, schedule: Q04DX003 (ip), vehicle: saline) 111 % of control; (dose: 27.0 mg/kg/injection, schedule: Q04DX003 (ip), vehicle: saline) 117 % of control; (dose: 32.0 mg/kg/injection, schedule: Q04DX003 (ip), vehicle: saline) 104 % of control.
`CC1(C)C2CCC(C2)C1C(=O)CCN1CCc2ccccc2C1` (stereo unspecified): the T/C is, setting by setting: (dose: 12.5 mg/kg/injection, schedule: Q01DX009 (ip), vehicle: saline with Tween-80) 106 % of control; (dose: 25.0 mg/kg/injection, schedule: Q01DX009 (ip), vehicle: saline with Tween-80) 107 % of control; under setting [1], 107 % of control.
In the case of `N#CC(C#N)=CN1CCCCCC1`, the T/C is 104 % of control (dose: 6.25 mg/kg/injection, schedule: Q04DX003 (ip), vehicle: saline with Tween-80) and 100 % of control (dose: 12.5 mg/kg/injection, schedule: Q04DX003 (ip), vehicle: saline with Tween-80).
Consider `O=C(NCCc1ccccc1)c1ccccc1`, for which the T/C (dose: 50.0 mg/kg/injection, schedule: Q04DX003 (ip), vehicle: saline with Tween-80) is 100 % of control; the T/C (dose: 100.0 mg/kg/injection, schedule: Q04DX003 (ip), vehicle: saline with Tween-80) was 90 % of control; the T/C (dose: 200.0 mg/kg/injection, schedule: Q04DX003 (ip), vehicle: saline with Tween-80) was 95 % of control; the T/C (dose: 400.0 mg/kg/injection, schedule: Q04DX003 (ip), vehicle: saline with Tween-80) was 100 % of control.
`CCCCCC(CN(C)C)C(/C=C/c1ccccc1Cl)=N\O` (stereo unspecified): the T/C (dose: 50.0 mg/kg/injection, schedule: Q01DX009 (ip), vehicle: saline) is 106 % of control and the T/C (dose: 100.0 mg/kg/injection, schedule: Q01DX009 (ip), vehicle: saline) is 112 % of control.
`Cc1c2cc[n+](C)cc2c(C)c2c1[nH]c1ccc(O)c(-[n+]3ccccc3)c12`: the T/C (dose: 2.5 mg/kg/injection, schedule: Q04DX003 (ip), vehicle: saline) is 113 % of control and the T/C (dose: 5.0 mg/kg/injection, schedule: Q04DX003 (ip), vehicle: saline) was 111 % of control.
Turning to `O=C1CSC(=O)N1c1ccc(F)cc1`, the T/C (dose: 6.25 mg/kg/injection, schedule: Q01DX009 (ip), vehicle: saline) was 98 % of control; the T/C (dose: 12.5 mg/kg/injection, schedule: Q01DX009 (ip), vehicle: saline) is 113 % of control; the T/C (dose: 25.0 mg/kg/injection, schedule: Q01DX009 (ip), vehicle: saline) was 114 % of control; the T/C under setting [1] was 106 % of control; the T/C under setting [2] was 104 % of control; the T/C under setting [3] was 87 % of control.
As to `O=C(O)C(Cc1ccc(O)cc1)NC(c1ccccc1)P(=O)(O)O` (stereo unspecified), the T/C reads like this: under setting [4], 108 % of control; under setting [5], 98 % of control; under setting [6], 99 % of control.
Consider `Cc1ccc(S(=O)(=O)N/N=C/c2cc(I)cc([N+](=O)[O-])c2O)cc1`, for which the T/C is, setting by setting: (dose: 50.0 mg/kg/injection, schedule: Q01DX005 (ip), vehicle: saline with Tween-80) 95 % of control; (dose: 100.0 mg/kg/injection, schedule: Q01DX005 (ip), vehicle: saline with Tween-80) 101 % of control; (dose: 200.0 mg/kg/injection, schedule: Q01DX005 (ip), vehicle: saline with Tween-80) 100 % of control.
As for `Nc1nc(-c2ccccn2)cc2c(Cl)cccc12`, the T/C by setting is: under setting [4], 86 % of control; under setting [5], 115 % of control; under setting [6], 97 % of control.
In the case of `CC(/C=C/c1ccccc1)=N\NC(=O)c1ccccc1O`, the T/C is 93 % of control (dose: 60.0 mg/kg/injection, schedule: Q01DX005 (ip), vehicle: Klucel (hydroxypropylcellulose) (HPC)); 95 % of control (dose: 120.0 mg/kg/injection, schedule: Q01DX005 (ip), vehicle: Klucel (hydroxypropylcellulose) (HPC)); 89 % of control (dose: 240.0 mg/kg/injection, schedule: Q01DX005 (ip), vehicle: Klucel (hydroxypropylcellulose) (HPC)).
Consider `NC(=O)N/N=C(/Cc1nc2ccccc2nc1C/C(=N/NC(N)=O)c1cccc2ccccc12)c1cccc2ccccc12`, for which the T/C by setting is: under setting [4], 99 % of control and 95 % of control; under setting [5], 100 % of control; under setting [6], 100 % of control and 91 % of control.
`CC(C)(C)C1=NC(c2ccccc2)N2C(c3ccccc3)NC(c3ccccc3)C1C2c1ccccc1` (stereo unspecified): the T/C under setting [1] is 100 % of control, the T/C under setting [2] is 93 % of control and the T/C under setting [3] is 91 % of control.
Consider `C=C(C)[Se]c1ccccc1`, for which the T/C is 100 % of control and 118 % of control under setting [1]; 101 % of control and 121 % of control under setting [2].
For `COC(=O)c1ccc(/C=C(\c2ccc([N+](=O)[O-])o2)S(=O)(=O)c2ccc(NC(C)=O)cc2)o1`, the T/C is 95 % of control under setting [7] and 88 % of control under setting [8].
For `COc1cccc(OC)c1C(c1c(OC)cccc1OC)c1c(OC)cccc1OC`, the T/C was 109 % of control (dose: 22.0 mg/kg/injection, schedule: Q04DX003 (ip), vehicle: saline with Tween-80); 113 % of control (dose: 33.0 mg/kg/injection, schedule: Q04DX003 (ip), vehicle: saline with Tween-80); 109 % of control (dose: 75.0 mg/kg/injection, schedule: Q04DX003 (ip), vehicle: saline with Tween-80).
For the compound `NC(=O)/C=C\C(=O)NC1CCSC1=O` (stereo unspecified), the T/C runs as follows: (dose: 60.0 mg/kg/injection, schedule: Q01DX005 (ip), vehicle: saline + Tween-80 + alcohol) 105 % of control; (dose: 120.0 mg/kg/injection, schedule: Q01DX005 (ip), vehicle: saline + Tween-80 + alcohol) 94 % of control; (dose: 240.0 mg/kg/injection, schedule: Q01DX005 (ip), vehicle: saline + Tween-80 + alcohol) 100 % of control.
For the compound `Cc1ccc(N2C(=O)CCSC2=S)cc1Br`, the T/C was 103 % of control under setting [7]; 107 % of control under setting [8]; 107 % of control (dose: 200.0 mg/kg/injection, schedule: Q01DX009 (ip), vehicle: suspension in saline).
For the compound `CC1NC(=O)C(NC(=O)OCc2ccccc2)COC(=O)C(C(C)C)NC(=O)CCCCNC1=O` (stereo unspecified) (Cbz-SA[Ava]V; ester 1-C; configuration not given here), the T/C was 100 % of control (dose: 100.0 mg/kg/injection, schedule: Q04DX002 (ip), vehicle: saline with Tween-80); 104 % of control (dose: 200.0 mg/kg/injection, schedule: Q04DX002 (ip), vehicle: saline with Tween-80); 104 % of control (dose: 400.0 mg/kg/injection, schedule: Q04DX002 (ip), vehicle: saline with Tween-80).
For `CC1(C)CCC/C(=C\c2ccccc2)C1(O)c1ccccn1` (stereo unspecified), the T/C was 97 % of control under setting [1], 98 % of control under setting [2] and 100 % of control under setting [3].
On to `C(=C\c1cc2cc(C3=NCCN3)ccc2o1)/c1cc2cc(C3=NCCN3)ccc2o1`, for which the T/C is 154 % of control (dose: 25.0 mg/kg/injection, schedule: Q04DX003 (ip), vehicle: suspension in saline); 152 % of control (dose: 50.0 mg/kg/injection, schedule: Q04DX003 (ip), vehicle: suspension in saline); 101 % of control (dose: 100.0 mg/kg/injection, schedule: Q04DX003 (ip), vehicle: suspension in saline).

(Values after PubChem BioAssay AID330 (DTP/NCI, 2004).)
